We go through 4 compounds from patent publication US7816390B2, “N-substituted tricyclic 3-aminopyrazoles as anti-mitotic tubulin polymerization inhibitors” (Janssen Pharmaceutica NV, priority 2008, dated 2010).

Test [1] concerns tubulin (colchicine binding site). Put plainly: Radiolabeled [3H]-colchicine competition SPA assay.
The test system of test [2] is human tumor cell lines (AsPC-1, H460, PC3, T45D, A375, LoVo). Put plainly: Tumor cell proliferation assay (14C-thymidine incorporation). The format is cell-based. The procedure: (§1) The compound N-(3-ethoxyphenyl)-1,4-dihydro-6-ethoxy-7-(3-hydroxypropoxy)-1-methylindeno[1,2-c]pyrazole-3-amine was evaluated for direct effects on the growth of several human tumor cell lines derived from human cancers of varying origin (HeLa, cervical, H460 lung, LoVo colon, LnCAP and PC3 prostate lines, T47D breast, A375 melanoma, AsPC1 pancreatic and U87MG glioblastoma) and on the proliferation of normal human umbilical vein endothelial cells (HUVEC). Colchicine, nocodazole, doxorubicin and paclitaxel were evaluated as comparators.
(§2) Methods: Tumor cell anti-proliferative activity was assessed using standard in vitro cell proliferation assays in which the IC50 for inhibition of cell proliferation by a compound was measured using ^14C-thymidine incorporation into cellular DNA. Briefly, cells were plated into 96-well microplates and allowed to adhere overnight. Compound was added the next day and cells were incubated for an additional 24 hours. [^14C]-thymidine was allowed to incorporate into cellular DNA for 24 hours after which the plate was washed and counted in a scintillation counter.
For orientation: Uptake of a labelled nucleoside into DNA is a usual measure of proliferation.

The test system of test [3] is bovine tubulin. As to the kind of experiment: In vitro tubulin polymerization assay (CytoDYNAMIX Screen 03). The format is biochemical. The following applies: for IC50: 3 mg/mL bovine tubulin, absorbance at 340 nm, relative to Vmax of DMSO controls, read-out: IC50 for inhibition of tubulin polymerization; for effect on tubulin polymerization curve (Vmax): 10 μM. As to the method:
Compounds were assayed in vitro for effects on tubulin polymerization using a commercially available assay kit from Cytoskeleton (CytoDYNAMIX Screen 03).
Methods: Briefly, this assay is based on the observation that light scattered by microtubules is proportional to the concentration of microtubule polymer. The standard polymerization reaction contains 100 μL volume of tubulin solution consisting of 3 mg/mL bovine tubulin in 80 mM PIPES pH 6.9, 0.5 mM EGTA, 2 mM MgCl2, 1 mM GTP and 10% glycerol. The tubulin solution (100 μL/well) is added rapidly to wells of a 96-well plate containing duplicate aliquots (10 μL) of experimental compounds in DMSO to achieve a final well concentration of 1.0 and 10 μM in a preliminary screening assay. Control wells contain the same final concentration of DMSO (<0.5%). Following initiation of the polymerization reaction by incubation at 37° C., absorbance at 340 nm is measured every minute for 60 minutes using a SpectraMax plate reader. […] Inhibition of tubulin polymerization by experimental compounds is calculated relative to the Vmax of the DMSO controls. A more detailed description of assay conditions and assay optimization can be found in the Assay Kit Instructions. The resulting polymerization curve (OD vs. Time in sec) is represented by three phases of microtubule polymerization, including nucleation (Phase I), microtubule growth (Phase II) and finally, steady-state equilibrium (Phase III). Compounds that interact (bind) with tubulin alter one or more of these characteristic phases of tubulin polymerization.

For test [4], the system named is human umbilical vein endothelial cells (HUVEC). Put plainly: HUVEC proliferation assay (14C-thymidine incorporation). The format is cell-based. As to the method: as §1, §2
The subject of test [5] is tubulin (colchicine binding site). As to the kind of experiment: ThermoFluor binding assay.

Several values for one entry are separate records, joined by “and”; a condition that tells them apart may be missing. Equal entries are not always repeated. Where two headings read alike, the source gives them in different places.

`CC[C@]1(O)C[C@@H]2CN(CCc3c([nH]c4ccccc34)[C@@](C(=O)OC)(c3cc4c(cc3OC)N(C)[C@H]3[C@@](O)(C(=O)OC)[C@H](OC(C)=O)[C@]5(CC)C=CCN6CC[C@]43[C@@H]65)C2)C1` [vinblastine, reference compound]: the “competition with [3H]-colchicine binding” value in test [1] is listed as “no significant competition”.
In the case of `CCOc1cccc(Nc2nn(C)c3c2Cc2cc(OCC)c(OCCCO)cc2-3)c1` [N-(3-ethoxyphenyl)-1,4-dihydro-6-ethoxy-7-(3-hydroxypropoxy)-1-methylindeno[1,2-c]pyrazole-3-amine], the “fold less potent compared to paclitaxel” value in test [2] (depending on the cell line examined) is “approximately 10 fold”. Moreover, the IC50 in test [2] (range over 6 of 6 human tumor cell lines (AsPC-1, H460, PC3, T45D, A375, LoVo), read-out: IC50 for inhibition of tumor cell proliferation) is 2 to 10 nM; in test [3], 2400 nM and 2400 to 3700 nM; in test [4] (read-out: IC50 for inhibition of LSGS-stimulated HUVEC growth) it was below 10 nM; in test [4] (read-out: IC50 versus confluent, non-proliferating HUVEC cells), above 10000 nM. In test [1], the “competition with [3H]-colchicine binding” value is “competed with [^3H]-colchicine binding in a manner similar to unlabeled colchicine”. For the same compound, the “binding at the colchicine binding site” value in test [5] is “binding of this compound at the colchicine binding site was also demonstrated”.
As for `COC(=O)Nc1nc2ccc(C(=O)c3cccs3)cc2[nH]1` [nocodazole], in test [3], the “effect on tubulin polymerization curve (Vmax)” value was “significant decrease in the Vmax” and the IC50 is 1500 nM.
For the compound `CC(=O)O[C@H]1C(=O)[C@@]2(C)[C@H]([C@H](OC(=O)c3ccccc3)[C@]3(O)C[C@H](OC(=O)[C@H](O)[C@@H](NC(=O)c4ccccc4)c4ccccc4)C(C)=C1C3(C)C)[C@]1(OC(C)=O)CO[C@@H]1C[C@@H]2O` [paclitaxel], the anti-proliferative potency entry in test [2] (H460 lung, T47D breast, PC3 prostate and LoVo colon lines) is “sub-nM potency”. Besides, in test [3], the effect on tubulin result is “stabilization of tubulin” and the “effect on tubulin polymerization curve (Vmax)” value is recorded as “dramatic enhancement of the Vmax of the growth phase”.
